Tested on: normal human lung fibroblasts
Experiment: Ribosomal profiling: translational efficiency in TGFβ-treated fibroblasts
Assay type: cell-based
Procedure, shortened: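 Cells lysed on ice after a cold PBS wash containing cycloheximide. Ribosome-protected fragments and total mRNA were prepared with the ARTseq kit and sequenced by RNA-Seq. Reads were trimmed, mapped to the human genome and counted uniquely over coding regions per gene, with low-count genes excluded before differential translational-efficiency analysis.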

TGFβ
Log2 TE RPS20 (ENSG00000008988, 5 replicates): 1.435
change in translational profile of DNASE1L1 caused by TGFβ (ENSG00000013563, Control vs. TGFβ): D (D = <1.0 to 1.5)
Log2 TE VIM (ENSG00000026025, 5 replicates): 1.002
Log2 TE ARHGAP6 (ENSG00000047648, 5 replicates): −1.082
Log2 TE KITLG (ENSG00000049130, 5 replicates): −2.027
change in translational profile of KITLG caused by TGFβ (ENSG00000049130, Control vs. TGFβ): A (A = <−2.5)
Log2 TE ADAMTS6 (ENSG00000049192, 5 replicates): 2.863
change in translational profile of ADAMTS6 caused by TGFβ (ENSG00000049192, Control vs. TGFβ): F (F = >2.5)
Log2 TE LETMD1 (ENSG00000050426, 5 replicates): 1.27
change in translational profile of LETMD1 caused by TGFβ (ENSG00000050426, Control vs. TGFβ): D (D = <1.0 to 1.5)
change in translational profile of PLEKHA5 caused by TGFβ (ENSG00000052126, Control vs. TGFβ): C (C = <−1.0 to −1.5)
Log2 TE LAMA3 (ENSG00000053747, 5 replicates): −1.233
Log2 TE SYNE2 (ENSG00000054654, 5 replicates): −1.793
change in translational profile of EIF4B caused by TGFβ (ENSG00000063046, Control vs. TGFβ): E (E = <1.5 to 2.5)
Log2 TE RPL18 (ENSG00000063177, 5 replicates): 1.612
change in translational profile of RPL18 caused by TGFβ (ENSG00000063177, Control vs. TGFβ): E (E = <1.5 to 2.5)
Log2 TE LIMCH1 (ENSG00000064042, 5 replicates): −1.222
change in translational profile of HIPK2 caused by TGFβ (ENSG00000064393, Control vs. TGFβ): C (C = <−1.0 to −1.5)
Log2 TE ASPM (ENSG00000066279, 5 replicates): −2.175
change in translational profile of ASPM caused by TGFβ (ENSG00000066279, Control vs. TGFβ): A (A = <−2.5)
change in translational profile of RASSF1 caused by TGFβ (ENSG00000068028, Control vs. TGFβ): D (D = <1.0 to 1.5)
Log2 TE PABPC1 (ENSG00000070756, 5 replicates): 1.207
change in translational profile of PABPC1 caused by TGFβ (ENSG00000070756, Control vs. TGFβ): D (D = <1.0 to 1.5)
Log2 TE RPL31 (ENSG00000071082, 5 replicates): 1.6
change in translational profile of RPL31 caused by TGFβ (ENSG00000071082, Control vs. TGFβ): E (E = <1.5 to 2.5)
Log2 TE PLD1 (ENSG00000075651, 5 replicates): −1.032
change in translational profile of PLD1 caused by TGFβ (ENSG00000075651, Control vs. TGFβ): B (B = <−1.5 to −2.5)
Log2 TE SNRPA (ENSG00000077312, 5 replicates): 1.462
change in translational profile of EDN1 caused by TGFβ (ENSG00000078401, Control vs. TGFβ): E (E = <1.5 to 2.5)
Log2 TE CDC14B (ENSG00000081377, 5 replicates): −1.331
Log2 TE RPS5 (ENSG00000083845, 5 replicates): 1.533
Log2 TE AURKA (ENSG00000087586, 5 replicates): −1.736
change in translational profile of AURKA caused by TGFβ (ENSG00000087586, Control vs. TGFβ): B (B = <−1.5 to −2.5)
Log2 TE EPB41L1 (ENSG00000088367, 5 replicates): 1.018
change in translational profile of EPB41L1 caused by TGFβ (ENSG00000088367, Control vs. TGFβ): D (D = <1.0 to 1.5)
Log2 TE ARHGAP28 (ENSG00000088756, 5 replicates): −1.024
Log2 TE RPL6 (ENSG00000089009, 5 replicates): 1.107
change in translational profile of RPL6 caused by TGFβ (ENSG00000089009, Control vs. TGFβ): D (D = <1.0 to 1.5)
change in translational profile of P2RX7 caused by TGFβ (ENSG00000089041, Control vs. TGFβ): B (B = <−1.5 to −2.5)
change in translational profile of KDM2B caused by TGFβ (ENSG00000089094, Control vs. TGFβ): C (C = <−1.0 to −1.5)
change in translational profile of RPLP0 caused by TGFβ (ENSG00000089157, Control vs. TGFβ): D (D = <1.0 to 1.5)
Log2 TE IGBP1 (ENSG00000089289, 5 replicates): 1.266
change in translational profile of IGBP1 caused by TGFβ (ENSG00000089289, Control vs. TGFβ): E (E = <1.5 to 2.5)
Log2 TE GRAMD1A (ENSG00000089351, 5 replicates): 1.069
Log2 TE IRAK3 (ENSG00000090376, 5 replicates): −1.017
change in translational profile of IRAK3 caused by TGFβ (ENSG00000090376, Control vs. TGFβ): C (C = <−1.0 to −1.5)
change in translational profile of PABPC4 caused by TGFβ (ENSG00000090621, Control vs. TGFβ): D (D = <1.0 to 1.5)
Log2 TE FMO2 (ENSG00000094963, 5 replicates): −2.146
change in translational profile of FMO2 caused by TGFβ (ENSG00000094963, Control vs. TGFβ): A (A = <−2.5)
Log2 TE ACOT7 (ENSG00000097021, 5 replicates): 1.011
change in translational profile of ACOT7 caused by TGFβ (ENSG00000097021, Control vs. TGFβ): D (D = <1.0 to 1.5)
change in translational profile of ATP5D caused by TGFβ (ENSG00000099624, Control vs. TGFβ): D (D = <1.0 to 1.5)
change in translational profile of LGALS1 caused by TGFβ (ENSG00000100097, Control vs. TGFβ): D (D = <1.0 to 1.5)
Log2 TE EIF3L (ENSG00000100129, 5 replicates): 1.429
change in translational profile of EIF3L caused by TGFβ (ENSG00000100129, Control vs. TGFβ): D (D = <1.0 to 1.5)
Log2 TE RPL3 (ENSG00000100316, 5 replicates): 1.78
change in translational profile of RPL3 caused by TGFβ (ENSG00000100316, Control vs. TGFβ): E (E = <1.5 to 2.5)
Log2 TE TIMM9 (ENSG00000100575, 5 replicates): 1.113
Log2 TE RPS6KA5 (ENSG00000100784, 5 replicates): −1.431
Log2 TE CEP192 (ENSG00000101639, 5 replicates): −1.192
change in translational profile of CEP192 caused by TGFβ (ENSG00000101639, Control vs. TGFβ): C (C = <−1.0 to −1.5)
change in translational profile of AMMECR1 caused by TGFβ (ENSG00000101935, Control vs. TGFβ): D (D = <1.0 to 1.5)
change in translational profile of PLP2 caused by TGFβ (ENSG00000102007, Control vs. TGFβ): D (D = <1.0 to 1.5)
Log2 TE SGK3 (ENSG00000104205, 5 replicates): −1.011
Log2 TE TRPA1 (ENSG00000104321, 5 replicates): −1.256
Log2 TE EIF3E (ENSG00000104408, 5 replicates): 1.469
change in translational profile of EIF3E caused by TGFβ (ENSG00000104408, Control vs. TGFβ): E (E = <1.5 to 2.5)
Log2 TE EEF1D (ENSG00000104529, 5 replicates): 1.619
change in translational profile of EEF1D caused by TGFβ (ENSG00000104529, Control vs. TGFβ): E (E = <1.5 to 2.5)
change in translational profile of C19orf53 caused by TGFβ (ENSG00000104979, Control vs. TGFβ): D (D = <1.0 to 1.5)
Log2 TE RPS16 (ENSG00000105193, 5 replicates): 1.989
Log2 TE RPS19 (ENSG00000105372, 5 replicates): 1.55
Log2 TE GLTSCR2 (ENSG00000105373, 5 replicates): 2.067
change in translational profile of GLTSCR2 caused by TGFβ (ENSG00000105373, Control vs. TGFβ): E (E = <1.5 to 2.5)
change in translational profile of RAB3D caused by TGFβ (ENSG00000105514, Control vs. TGFβ): B (B = <−1.5 to −2.5)
Log2 TE RPL18A (ENSG00000105640, 5 replicates): 1.669
change in translational profile of RPL18A caused by TGFβ (ENSG00000105640, Control vs. TGFβ): E (E = <1.5 to 2.5)
Log2 TE COMP (ENSG00000105664, 5 replicates): 1.317
change in translational profile of COMP caused by TGFβ (ENSG00000105664, Control vs. TGFβ): E (E = <1.5 to 2.5)
Log2 TE GLCCI1 (ENSG00000106415, 5 replicates): −1.842
change in translational profile of GLCCI1 caused by TGFβ (ENSG00000106415, Control vs. TGFβ): B (B = <−1.5 to −2.5)
Log2 TE CORO2A (ENSG00000106789, 5 replicates): 1.212
change in translational profile of CORO2A caused by TGFβ (ENSG00000106789, Control vs. TGFβ): E (E = <1.5 to 2.5)
change in translational profile of GDF10 caused by TGFβ (ENSG00000107623, Control vs. TGFβ): C (C = <−1.0 to −1.5)
Log2 TE RPL28 (ENSG00000108107, 5 replicates): 1.869
change in translational profile of RPL28 caused by TGFβ (ENSG00000108107, Control vs. TGFβ): E (E = <1.5 to 2.5)
Log2 TE RPL19 (ENSG00000108298, 5 replicates): 1.075
change in translational profile of RPL19 caused by TGFβ (ENSG00000108298, Control vs. TGFβ): D (D = <1.0 to 1.5)
Log2 TE RASD1 (ENSG00000108551, 5 replicates): 1.836
change in translational profile of RASD1 caused by TGFβ (ENSG00000108551, Control vs. TGFβ): E (E = <1.5 to 2.5)
Log2 TE SLC16A6 (ENSG00000108932, 5 replicates): −1.3497
change in translational profile of NAT9 caused by TGFβ (ENSG00000109065, Control vs. TGFβ): D (D = <1.0 to 1.5)
Log2 TE INPP4B (ENSG00000109452, 5 replicates): −1.569
Log2 TE RPL34 (ENSG00000109475, 5 replicates): 1.608
change in translational profile of RPL34 caused by TGFβ (ENSG00000109475, Control vs. TGFβ): E (E = <1.5 to 2.5)
Log2 TE NEIL3 (ENSG00000109674, 5 replicates): −2.63
Log2 TE CRYAB (ENSG00000109846, 5 replicates): 1.107
change in translational profile of CRYAB caused by TGFβ (ENSG00000109846, Control vs. TGFβ): D (D = <1.0 to 1.5)
Log2 TE RPS13 (ENSG00000110700, 5 replicates): 1.539
Log2 TE KRT18 (ENSG00000111057, 5 replicates): 1.811
Log2 TE GAPDH (ENSG00000111640, 5 replicates): 1.263
change in translational profile of GAPDH caused by TGFβ (ENSG00000111640, Control vs. TGFβ): E (E = <1.5 to 2.5)
Log2 TE C12orf57 (ENSG00000111678, 5 replicates): 1.173
change in translational profile of C12orf57 caused by TGFβ (ENSG00000111678, Control vs. TGFβ): D (D = <1.0 to 1.5)
Log2 TE BVES (ENSG00000112276, 5 replicates): 1.173
Log2 TE RPS12 (ENSG00000112306, 5 replicates): 1.642
change in translational profile of MDFI caused by TGFβ (ENSG00000112559, Control vs. TGFβ): A (A = <−2.5)
Log2 TE HBEGF (ENSG00000113070, 5 replicates): 1.088
change in translational profile of HBEGF caused by TGFβ (ENSG00000113070, Control vs. TGFβ): D (D = <1.0 to 1.5)
Log2 TE THG1L (ENSG00000113272, 5 replicates): 1.155
Log2 TE RPL24 (ENSG00000114391, 5 replicates): 1.304
change in translational profile of RPL24 caused by TGFβ (ENSG00000114391, Control vs. TGFβ): E (E = <1.5 to 2.5)
Log2 TE EEF1B2 (ENSG00000114942, 5 replicates): 1.434
change in translational profile of EEF1B2 caused by TGFβ (ENSG00000114942, Control vs. TGFβ): E (E = <1.5 to 2.5)
Log2 TE IFIH1 (ENSG00000115267, 5 replicates): −1.416
change in translational profile of IFIH1 caused by TGFβ (ENSG00000115267, Control vs. TGFβ): B (B = <−1.5 to −2.5)
Log2 TE RPS15 (ENSG00000115268, 5 replicates): 1.3
